Results taken from ChEMBL document CHEMBL6134829, “Targeting cysteine protease B to discover antileishmanial drugs: Directions and advances” (Eur J Med Chem, 2025).
Converted amounts (≈) assume the structure as drawn. *1 amine or outer side, *2 acyl side, *3 side chain or, on linkers, in order; H or OH if unused. Where a SMILES comes first, the peptide text is derived from it. [ ]: non-standard residue; d: D form. X1 = O=C1CC2C(=O)N(CCN[*:1])C(=O)C2C(c2ccc(C(=O)[*:2])cc2)C1; X2 = O=C1CC2C(=O)N(CCN[*:1])C(=O)C2C(C(=O)[*:2])C1; Cha = N[C@@H](CC1CCCCC1)C(=O)O

How the values were obtained:
[1] = Inhibition of Leishmania mexicana CPB2.8
[2] = Inhibition of Leishmania donovani cysteine protease
[3] = Binding affinity to Leishmania mexicana CPB2.8 assessed as inhibition constant
Leishmania amazonensis = assay: Antileishmanial activity against Leishmania amazonensis promastigotes assessed as inhibition of parasite growth; assay type: functional, organism-based
Leishmania major = assay: Antileishmanial activity against Leishmania major promastigotes MHOM/IL/81/FE/BN; assay type: functional, organism-based
Leishmania infantum = assay: Antileishmanial activity against Leishmania infantum promastigote assessed as reduction in parasite growth after 72 hrs by MTT assay relative to control; assay type: functional; parameters: scale not given: the % may be the effect or the level left
Leishmania donovani = assay: Antileishmanial activity against Leishmania donovani MHOM/IN/1983/AG83 axenic amastigotes assessed as inhibition of growth at 10 uM relative to control; assay type: functional; parameters: scale not given: the % may be the effect or the level left

| SMILES | IC50 [1] | also measured |
| --- | --- | --- |
| CC(C)[C@H](NC(=O)c1ccc(C2CC(=O)CC3C(=O)N(CCNC(=O)[C@H](CC(=O)O)NC(=O)[C@@H](N)Cc4c[nH]c5ccccc45)C(=O)C32)cc1)C(=O)N[C@@H](CO)C(=O)N[C@@H](CCCCN)C(N)=O (stereo partly specified) (H-WD[X1]VSK-NH2) | 1700 nM |  |
| Oc1cccc(/C=N\c2cccc3c(/N=C/c4cccc(O)c4O)cccc23)c1O |  | IC50 [2]: 113 µM |
| CN(C)c1ccc(/C=C/C(=O)c2cc(Cl)ccc2O)cc1 | 3970 nM | Ki [3]: 5470 nM |
| C[C@@H]1CCC2(C(=O)O)CC[C@]3(C)C(=CCC4[C@@]5(C)CCC(=O)C(C)(C)C5CC[C@]43C)C2[C@H]1C (stereo partly specified) | 3780 nM | Ki [3]: 1260 nM |
| CC(C)=CCOc1ccc(C(=O)c2ccc(O)cc2)c(O)c1 | 2900 nM | Ki [3]: 4300 nM |
| O=C1c2c(O)cc(O)cc2O[C@@H](c2ccc(O)cc2)[C@@H]1c1c(O)cc(O)c2c(=O)cc(-c3ccc(O)c(O)c3)oc12 | 5200 nM | IC50 (Leishmania amazonensis): 95 µg/mL (≈ 171 µM) |
| Oc1cc(O)cc(/C=N/c2ccc(/N=C/c3ccc(O)cc3O)c(Cl)c2)c1 |  | IC50 [2]: 65.3 µM |
| CC(C)C[C@H](NC(=O)OC(C)(C)C)C(=O)N1CCC[C@@H]1C(=O)N1[C@H](C(=O)OCc2ccccc2)[C@H]1C(=O)OCc1ccccc1 |  | IC50 (Leishmania major): 39.6 µM |
| CC(C)C[C@H](NC(=O)OC(C)(C)C)C(=O)N1CCC[C@@H]1C(=O)N1[C@@H](C(=O)OCc2ccccc2)[C@@H]1C(=O)OCc1ccccc1 | 3800 nM |  |
| O=c1c(O)c(-c2ccc3c(c2)OCO3)oc2ccccc12 | 5230 nM | Ki [3]: 7060 nM |
| CC(C)C[C@@H](NC(=O)OC(C)(C)C)C(=O)N1CCC[C@@H]1C(=O)N1[C@H](C(=O)OCc2ccccc2)[C@H]1C(=O)OCc1ccccc1 |  | IC50 (Leishmania major): 35.4 µM |
| O=C(CN1C(=O)/C(=N\NC(=O)c2ccncc2)c2ccccc21)Nc1ccccc1 |  | IC50 [2]: 62.6 µM |
| CC(C)(C)OC(=O)N[C@@H](Cc1cccc(Cl)c1)C(=O)NCC#N |  | Activity (Leishmania infantum): 35% |
| COC(=O)c1ccc(NC(=O)CSc2nc3ccc(Cl)cc3n2Cc2cc(C)cc(C)c2)c(Cl)c1 | 2060 nM | Ki [3]: 690 nM |
| O=C1CC(c2ccc(O)c(-c3c(O)cc4c(c3O)C(=O)CC(c3ccc(O)cc3)O4)c2)Oc2cc(O)cc(O)c21 (stereo unspecified) | 2200 nM |  |
| Cc1ccc(C(=O)[C@@]23C(=O)OC(=O)[C@]2(C)N(C)[C@]2(c4ccccc4)Sc4ccccc4[C@H]32)cc1 | 3700 nM | Ki [3]: 1360 nM |
| COc1ccc(-c2oc3ccccc3c(=O)c2O)cc1 | 4720 nM | Ki [3]: 7710 nM |
| COc1ccc2nc3cc(Cl)ccc3c(-n3c(=S)[nH][nH]c3=S)c2c1 | 1140 nM | IC50 (Leishmania amazonensis): 6.57 µg/mL (≈ 17.5 µM) |
| CC(C)(F)C[C@H](N[C@@H](c1ccc(-c2ccc(S(C)(=O)=O)cc2)cc1)C(F)(F)F)C(=O)NC1(C#N)CC1 [ODANACATIB] |  | Activity (Leishmania infantum): 90% |
| CCOc1cc(/C=C2\SC(=O)NC2=O)ccc1O | 1420 nM | Activity (Leishmania donovani): 100% |
| O=C(O)c1ccccc1N/N=C/c1ccc(/C=N/Nc2ccccc2C(=O)O)cc1 |  | IC50 [2]: 72 µM |
| COc1ncccc1Nc1nc(C#N)nc(NC2CCCCC2)n1 | 1100 nM |  |

More lines, in order of falling IC50 [1], values ahead:

| IC50 [1] | SMILES | also measured |
| --- | --- | --- |
| 980 nM | O=C1NC(=O)/C(=C/c2ccc([N+](=O)[O-])cc2)S1 | Activity (Leishmania donovani): 93.98% |
| 680 nM | Cc1cc(C)cc(S(=O)(=O)n2c(SCC(=O)Nc3ccccc3)nc3ccccc32)c1 | Ki [3]: 230 nM |
| 540 nM | COC(=O)c1ccc(NC(=O)CSc2nc3ccccc3n2S(=O)(=O)c2cc(C)cc(C)c2)cc1 | Ki [3]: 180 nM |
| 500 nM | CC(C)C[C@H](NC(=O)C1CC(=O)CC2C(=O)N(CCNC(=O)[C@H](Cc3ccccc3)NC(=O)[C@@H](N)Cc3c[nH]c4ccccc34)C(=O)C12)C(=O)N[C@@H](Cc1ccc(O)cc1)C(=O)N[C@@H](Cc1ccc(O)cc1)C(N)=O (stereo partly specified) (H-WF[X2]LYY-NH2) |  |
| 450 nM | CC(C)[C@H](NC(=O)c1ccc(C2CC(=O)CC3C(=O)N(CCNC(=O)[C@H](Cc4c[nH]c5ccccc45)NC(=O)[C@@H](N)CC4CCCCC4)C(=O)C32)cc1)C(=O)N[C@H](C(=O)N[C@@H](Cc1ccccc1)C(N)=O)C(C)C (stereo partly specified) (H-[Cha]W[X1]VVF-NH2) |  |
| 450 nM | COC(=O)c1ccc(NC(=O)CSc2nc3ccc(Cl)cc3n2S(=O)(=O)c2cc(C)cc(C)c2)c(Cl)c1 | Ki [3]: 150 nM |
| 430 nM | O=C1CC(c2ccc(O)cc2)Oc2cc(O)c(-c3c(O)cc(O)c4c(=O)cc(-c5ccc(O)cc5)oc34)c(O)c21 (stereo unspecified) |  |
| 230 nM | CN1CCN(C(=O)N[C@@H](Cc2ccccc2)C(=O)N[C@@H](CCc2ccccc2)C(=O)c2cc(-c3ccccc3)on2)CC1 |  |
| 190 nM | O=C(N[C@@H](CCc1ccccc1)C(=O)c1cc(-c2ccccc2)on1)[C@H](Cc1ccccc1)NC(=O)N1CCOCC1 |  |
| 100 nM | O=C(N[C@@H](Cc1ccccc1)C(=O)c1cc(-c2ccccc2)on1)[C@H](Cc1ccccc1)NC(=O)N1CCOCC1 |  |
| 70 nM | COc1ccc(-c2ccc(/C=N/NC(N)=S)o2)cc1 |  |
| 60 nM | NC(=S)N/N=C/c1c(-c2ccccc2)[nH]c2ccccc12 |  |
| 50 nM | O=C(N[C@@H](Cc1ccccc1)C(=O)c1noc(-c2ccccc2)n1)[C@H](Cc1ccccc1)NC(=O)N1CCOCC1 |  |
| 27 nM | O=C(N[C@H](/C=C/S(=O)(=O)c1ccccc1)CCc1ccccc1)[C@H](Cc1ccccc1)NC(=O)N1CCOCC1 |  |
| 10 nM | NC(=O)N/N=c1\oc2ccccc2cc1-c1nc2ccccc2[nH]1 |  |
